Data from patent US20030130340A1, “Novel benzothiophene derivatives” (Daiichi Pharmaceutical Co. Ltd., priority 2000, published 2003).
Where a name gives a salt, the structure may show the parent alone.

target: T1, steroid 17α-hydroxylase and/or steroid C17-20 lyase (Rattus norvegicus, UniProt P11715); assay: Measurement of steroid 17α-hydroxylase and/or steroid C17-20 lyase inhibitory activity (rat testis microsome, HPLC); type: biochemical; details: Enzyme source: rat testis microsome; test compound 300 nM; substrate 25 μM 17α-hydroxyprogesterone; NADPH 500 μM; 20 minutes at 37° C.
T1 construct: the testis of rats (SD, male) was homogenized and centrifuged to obtain microsome; from tissue; host or cells: rat (SD, male) testis microsomes
T1 sequence (P11715 1-507): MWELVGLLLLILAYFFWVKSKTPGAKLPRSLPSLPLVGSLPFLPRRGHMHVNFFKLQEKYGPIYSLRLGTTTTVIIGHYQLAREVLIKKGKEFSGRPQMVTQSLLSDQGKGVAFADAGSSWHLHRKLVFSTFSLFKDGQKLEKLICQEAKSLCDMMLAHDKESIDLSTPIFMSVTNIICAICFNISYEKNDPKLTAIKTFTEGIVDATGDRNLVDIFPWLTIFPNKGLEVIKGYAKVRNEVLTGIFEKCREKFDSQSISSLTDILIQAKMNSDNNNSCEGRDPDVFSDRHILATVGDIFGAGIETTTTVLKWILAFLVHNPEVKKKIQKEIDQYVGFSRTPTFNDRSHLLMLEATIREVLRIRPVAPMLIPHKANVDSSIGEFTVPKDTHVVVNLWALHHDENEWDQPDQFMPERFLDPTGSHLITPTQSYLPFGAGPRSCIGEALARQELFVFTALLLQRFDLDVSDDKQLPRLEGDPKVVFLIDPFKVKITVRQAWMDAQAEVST
Protocol: An experiment was carried out according to the method of T. Sergejew and R. W. Hartmann (J. Enzyme Inhibition, 8, 113(1994)). That is, the testis of rats (SD, male) was homogenized and centrifuged to obtain microsome. […] After the addition of 100 μl of microsome protein solution, the protein contentration was adjusted to 0.1 mg/ml by 50 mM phosphate buffer solution (pH 7.4), 140 μl of 125 nmol NADPH solution, and 10 μl of 6.25 nmol 17α-hydroxyprogesterone, the mixture was incubated for 20 minutes at 37° C. 50 μl of 1N hydrochloric acid and 1000 μl of ethyl acetate were sequentially added to the mixture. The mixture was shaken and centrifuged. The ethyl acetate layer was washed with 250 μl of 50 mM phosphate buffer solution (pH 7.4) and 50 μl of 1N hydrochloric acid, centrifuged, and concentrated. The concentrate was dissolved in 100 μl of acetonitrile. 10 μl of this solution was charged to high performance liquid chromatography. The amounts of the substrate and the product (androstenedione and testosterone) were measured to calculate the enzyme activity. In this experiment, a sample without the test compound was provided as a control group. Steroid 17α-hydroxylase and/or steroid C17-20-lyase inhibitory activity (%) was calculated by the following equation (1) using the amounts of the substrate and the product obtained.

**Q.** Which inhibition at 0.3 µM does the source give for `COc1ccc2c(-c3cccnc3)csc2c1` [Example 2, 3-[6-methoxybenzo[b]thiophen-3-yl]pyridine hydrochloride] here?
**A.** The inhibition at 0.3 µM was 89%.

**Q.** `COc1ccc(-c2ccc3c(-c4ccncc4)csc3c2)cc1` [Example 7, 4-[6-(4-methoxyphenyl)benzo[b]thiophen-3-yl]pyridine] was tested. Which inhibition at 0.3 µM did it give?
**A.** The inhibition at 0.3 µM was 60%.

**Q.** Which inhibition at 0.3 µM does the source give for `Oc1ccc2c(-c3cccnc3)csc2c1` [Example 8, 3-(3-pyridyl)benzo[b]thiophen-6-ol] here?
**A.** The inhibition at 0.3 µM was 59%.

**Q.** With `CC(=O)Oc1ccc2c(-c3cccnc3)csc2c1` [Example 9, 3-(3-pyridyl)benzo[b]thiophen-6-yl=acetate] as the molecule, how does the “Inhibitory activity (%)” value read?
**A.** Its value is 63%.

**Q.** With `O=C(Oc1ccc2c(-c3cccnc3)csc2c1)c1ccccc1` [Example 10, 3-(3-pyridyl)benzo[b]thiophen-6-yl=benzoate] as the molecule, how does the “Inhibitory activity (%)” value read?
**A.** Its value is 71%.

**Q.** With `c1ccc(COc2ccc3c(-c4cccnc4)csc3c2)cc1` [Example 11, 3-(6-benzyloxybenzo[b]thiophen-3-yl)pyridine hydrochloride] as the molecule, how does the inhibition at 0.3 µM read?
**A.** The inhibition at 0.3 µM was 71%.

**Q.** Which inhibition at 0.3 µM does the source give for `CC(C)Oc1ccc2c(-c3cccnc3)csc2c1` [Example 12, 3-(6-isopropyloxybenzo[b]thiophen-3-yl)pyridine hydrochloride] here?
**A.** The inhibition at 0.3 µM was 100%.

**Q.** How did the inhibition at 0.3 µM turn out when `Fc1ccc(-c2ccc3c(-c4cccnc4)csc3c2)cc1` [Example 13, 3-[6-(4-fluorophenyl)benzo[b]thiophen-3-yl]pyridine hydrochloride] was run?
**A.** Its inhibition at 0.3 µM is 93%.

**Q.** For `Fc1cccc(-c2ccc3c(-c4cccnc4)csc3c2)c1` [Example 14, 3-[6-(3-fluorophenyl)benzo[b]thiophen-3-yl]pyridine], which inhibition at 0.3 µM is on record?
**A.** Its inhibition at 0.3 µM is 91%.

**Q.** For `c1ccc(-c2ccc3c(-c4cccnc4)csc3c2)cc1` [Example 15, 3-(6-phenylbenzo[b]thiophen-3-yl)pyridine], which inhibition at 0.3 µM is on record?
**A.** Its inhibition at 0.3 µM is 93%.

**Q.** With `COc1cccc(-c2ccc3c(-c4cccnc4)csc3c2)c1` [Example 16, 3-[6-(3-methoxyphenyl)benzo[b]thiophen-3-yl]pyridine hydrochloride] as the molecule, how does the inhibition at 0.3 µM read?
**A.** The inhibition at 0.3 µM was 73%.

**Q.** Which inhibition at 0.3 µM does the source give for `COc1ccc(-c2ccc3c(-c4cccnc4)csc3c2)cc1` [Example 18, 3-[6-(4-methoxyphenyl)benzo[b]thiophen-3-yl]pyridine] here?
**A.** The inhibition at 0.3 µM was 37%.

**Q.** With `Oc1ccc(-c2ccc3c(-c4cccnc4)csc3c2)cc1` [Example 19, 4-[3-(3-pyridyl)benzo[b]thiophen-6-yl]-phenol] as the molecule, how does the inhibition at 0.3 µM read?
**A.** The inhibition at 0.3 µM was 68%.

**Q.** `COc1ccc(-c2ccc3c(-c4cccnc4)csc3c2)cc1OC` [Example 21, 3-[6-(3,4-dimethoxyphenyl)benzo[b]thiophen-3-yl]pyridine] was tested. Which inhibition at 0.3 µM did it give?
**A.** Its inhibition at 0.3 µM is 30%.

**Q.** `Oc1ccc(-c2ccc3c(-c4cccnc4)csc3c2)cc1O` [Example 22, 4-[3-(3-pyridyl)benzo[b]thiophen-6-yl]benzene-1,2-diol] was tested. Which inhibition at 0.3 µM did it give?
**A.** Its inhibition at 0.3 µM is 73%.

**Q.** `Nc1cccc(-c2ccc3c(-c4cccnc4)csc3c2)c1` [Example 23, 3-[3-(3-pyridyl)benzo[b]thiophen-6-yl]phenylamine] was tested. Which inhibition at 0.3 µM did it give?
**A.** Its inhibition at 0.3 µM is 100%.

**Q.** For `c1cncc(-c2csc3cc(OC4CCCC4)ccc23)c1` [Example 25, 3-(6-cyclopentyloxybenzo[b]thiophen-3-yl)pyridine hydrochloride], which inhibition at 0.3 µM is on record?
**A.** The inhibition at 0.3 µM was 76%.

**Q.** For `COc1cccc(Oc2ccc3c(-c4cccnc4)csc3c2)c1` [Example 26, 3-[6-(3-methoxyphenoxy)benzo[b]thiophen-3-yl]pyridine hydrochloride], which inhibition at 0.3 µM is on record?
**A.** The inhibition at 0.3 µM was 1%.

**Q.** How did the inhibition at 0.3 µM turn out when `Cc1ccc2c(-c3cccnc3)csc2c1` [Example 27, 3-(6-methylbenzo[b]thiophen-3-yl)pyridine hydrochloride] was run?
**A.** The inhibition at 0.3 µM was 56%.

**Q.** For `Brc1ccc2c(-c3cccnc3)csc2c1` [Example 28, 3-(6-bromobenzo[b]thiophen-3-yl)pyridine hydrochloride], which inhibition at 0.3 µM is on record?
**A.** The inhibition at 0.3 µM was 42%.

**Q.** With `Brc1cccc2scc(-c3cccnc3)c12` [Example 29, 3-(4-bromobenzo[b]thiophen-3-yl)pyridine hydrochloride] as the molecule, how does the inhibition at 0.3 µM read?
**A.** Its inhibition at 0.3 µM is 25%.

**Q.** For `c1cncc(-c2csc3cc(OC4CCC4)ccc23)c1` [Example 30, 3-(6-cyclobutyloxybenzo[b]thiophen-3-yl) pyridine hydrochloride], which inhibition at 0.3 µM is on record?
**A.** The inhibition at 0.3 µM was 100%.

**Q.** With `c1cncc(-c2csc3cc(-c4ccsc4)ccc23)c1` [Example 31, 3-[6-(3-thienyl)benzo[b]thiophen-3-yl]pyridine hydrochloride] as the molecule, how does the inhibition at 0.3 µM read?
**A.** Its inhibition at 0.3 µM is 100%.

**Q.** How did the inhibition at 0.3 µM turn out when `c1cncc(-c2csc3cc(-c4ccoc4)ccc23)c1` [Example 32, 3-[6-(3-furyl)benzo[b]thiophen-3-yl]pyridine hydrochloride] was run?
**A.** Its inhibition at 0.3 µM is 100%.

**Q.** Which inhibition at 0.3 µM does the source give for `c1cncc(-c2csc3cc(-c4cccs4)ccc23)c1` [Example 33, 3-[6-(2-thienyl)benzo[b]thiophen-3-yl]pyridine hydrochloride] here?
**A.** Its inhibition at 0.3 µM is 100%.

**Q.** How did the inhibition at 0.3 µM turn out when `c1cncc(-c2csc3cc(-c4ccco4)ccc23)c1` [Example 34, 3-[6-(2-furyl)benzo[b]thiophen-3-yl]pyridine hydrochloride] was run?
**A.** Its inhibition at 0.3 µM is 100%.

**Q.** With `CCCCCCOc1ccc2c(-c3cccnc3)csc2c1` [Example 35, 3-(6-hexyloxybenzo[b]thiophen-3-yl)pyridine hydrochloride] as the molecule, how does the inhibition at 0.3 µM read?
**A.** The inhibition at 0.3 µM was 61%.

**Q.** `CCCCCOc1ccc2c(-c3cccnc3)csc2c1` [Example 36, 3-(6-amyloxybenzo[b]thiophen-3-yl)pyridine hydrochloride] was tested. Which inhibition at 0.3 µM did it give?
**A.** Its inhibition at 0.3 µM is 60%.

**Q.** With `CCCCOc1ccc2c(-c3cccnc3)csc2c1` [Example 37, 3-(6-butyloxybenzo[b]thiophen-3-yl)pyridine hydrochloride] as the molecule, how does the inhibition at 0.3 µM read?
**A.** The inhibition at 0.3 µM was 80%.

**Q.** How did the inhibition at 0.3 µM turn out when `CC(=O)c1ccccc1-c1ccc2c(-c3cccnc3)csc2c1` [Example 38, 1-{2-[3-(3-pyridyl)benzo[b]thiophen-6-yl]phenyl}-1-ethanone hydrochloride] was run?
**A.** The inhibition at 0.3 µM was 45%.

**Q.** How did the inhibition at 0.3 µM turn out when `CC(=O)c1cccc(-c2ccc3c(-c4cccnc4)csc3c2)c1` [Example 39, 1-{3-[3-(3-pyridyl)benzo[b]thiophen-6-yl]phenyl}-1-ethanone] was run?
**A.** The inhibition at 0.3 µM was 64%.

**Q.** Which inhibition at 0.3 µM does the source give for `CC(C)COc1ccc2c(-c3cccnc3)csc2c1` [Example 40, 3-(6-isobutyloxybenzo[b]thiophen-3-yl) pyridine hydrochloride] here?
**A.** The inhibition at 0.3 µM was 79%.

**Q.** With `CCCOc1ccc2c(-c3cccnc3)csc2c1` [Example 41, 3-(6-propyloxybenzo[b]thiophen-3-yl)pyridine hydrochloride] as the molecule, how does the inhibition at 0.3 µM read?
**A.** The inhibition at 0.3 µM was 95%.

**Q.** With `c1cncc(-c2csc3cc(-c4ccc5c(c4)OCO5)ccc23)c1` [Example 42, 3-[6-(1,3-benzodioxol-5-yl)benzo[b]thiophen-3-yl]pyridine hydrochloride] as the molecule, how does the inhibition at 0.3 µM read?
**A.** The inhibition at 0.3 µM was 57%.

**Q.** Which inhibition at 0.3 µM does the source give for `CCOc1ccc2c(-c3cccnc3)csc2c1` [Example 43, 3-(6-ethyloxybenzo[b]thiophen-3-yl)pyridine hydrochloride] here?
**A.** The inhibition at 0.3 µM was 97%.

**Q.** Which inhibition at 0.3 µM does the source give for `CC(=O)c1ccc(-c2ccc3c(-c4cccnc4)csc3c2)cc1` [Example 44, 1-{4-[3-(3-pyridyl)benzo[b]thiophen-6-yl]phenyl}-1-ethanone] here?
**A.** The inhibition at 0.3 µM was 46%.

**Q.** How did the inhibition at 0.3 µM turn out when `CN(C)CCOc1ccc2c(-c3cccnc3)csc2c1` [Example 45, 3-[6-(N,N-dimethyl-2-aminoethyloxy)benzo[b]thiophen-3-yl]pyridine dimaleate] was run?
**A.** Its inhibition at 0.3 µM is 33%.

**Q.** How did the inhibition at 0.3 µM turn out when `CC(C)Cc1ccc2c(-c3cccnc3)csc2c1` [Example 46, 3-(6-isobutylbenzo[b]thiophen-3-yl)pyridine hydrochloride] was run?
**A.** The inhibition at 0.3 µM was 100%.

**Q.** `CSc1ccc(-c2ccc3c(-c4cccnc4)csc3c2)cc1` [Example 47, 3-[6-(4-methylthiophenyl)benzo[b]thiophen-3-yl]pyridine hydrochloride] was tested. Which inhibition at 0.3 µM did it give?
**A.** The inhibition at 0.3 µM was 53%.

**Q.** With `Cl.FC(F)(F)c1ccccc1-c1ccc2c(-c3cccnc3)csc2c1` [Example 48, 3-{[6-(2-trifluoromethyl)phenyl]benzo[b]thiophen-3-yl}pyridine hydrochloride] as the molecule, how does the “Inhibitory activity (%)” value read?
**A.** Its value is 54%.

**Q.** For `CC(C)Nc1cccc(-c2ccc3c(-c4cccnc4)csc3c2)c1` [Example 49, isopropyl {3-[3-(3-pyridyl)benzo[b]thiophen-6-yl]phenyl}amine], which inhibition at 0.3 µM is on record?
**A.** The inhibition at 0.3 µM was 67%.

**Q.** With `c1cncc(-c2csc3cc(C4CCCCC4)ccc23)c1` [Example 50, 3-(6-cyclohexylbenzo[b]thiophen-3-yl)pyridine hydrochloride] as the molecule, how does the inhibition at 0.3 µM read?
**A.** Its inhibition at 0.3 µM is 80%.

**Q.** For `CC(C)Oc1cccc(-c2ccc3c(-c4cccnc4)csc3c2)c1` [Example 51, 3-[6-(3-isopropyloxyphenyl)benzo[b]thiophen-3-yl]pyridine hydrochloride], which inhibition at 0.3 µM is on record?
**A.** The inhibition at 0.3 µM was 37%.

**Q.** Which inhibition at 0.3 µM does the source give for `CCCc1ccc2c(-c3cccnc3)csc2c1` [Example 52, 3-(6-propylbenzo[b]thiophen-3-yl)pyridine hydrochloride] here?
**A.** Its inhibition at 0.3 µM is 93%.
